Laboratory results published in patent publication US11780840B2 (Incyte Corporation, priority 2020, dated 2023).

How the values were obtained:
[1] = target: T1, catalytic domain (JH1, amino acids 826-1132) of human JAK2 (Homo sapiens, UniProt O60674); assay: JAK2 LanthaScreen JH1 Binding Assay; details: JAK2 JH1 (1.5 nM), 50 nM fluorescent JAK2-JH1 tracer, 2 hours at 25° C.; read-out: JH1 BIND
T1 construct: catalytic domain (JH1, amino acids 826-1132) of human JAK2; FLAG (N); purchased Carna Biosciences 08-445-20N; host or cells: baculovirus expression system
Procedure, shortened: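 FLAG-tagged, biotinylated JAK2 JH1 (aa 826-1132, baculovirus-expressed; 1.5 nM) incubated 2 h at 25° C with compounds, 50 nM fluorescent tracer and 0.5 nM Streptavidin-Tb in Tris pH 7.5 buffer with MgCl2, Brij-35, BSA, EGTA, glycerol, DTT. Nonspecific binding defined with 2 mM ATP; TR-FRET IC50 from four-parameter fit.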

[2] = target: T2, pseudo-kinase domain (JH2, amino-acids 536-812 with 3 surface mutations W659A, W777A, F794H) of human V617F mutant JAK2 (Homo sapiens, UniProt O60674, F794H/V617F/W659A/W777A); assay: JAK2 LanthaScreen JH2-V617F Binding Assay; details: JAK2 JH2-V617F (0.26 nM), 50 nM Fluorescent JAK2-JH2 Tracer, 1 hour at 25° C.; read-out: JH2 BIND V617F
T2 construct: pseudo-kinase domain (JH2, amino-acids 536-812 with 3 surface mutations W659A, W777A, F794H); His (C); Avi (biotinylated) (C); purchased BPS Bioscience 79498; host or cells: baculovirus expression system
Procedure, shortened: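 IC50 values came from four-parameter dose-response fits of LanthaScreen signal, read after compounds sat 1 hour at 25° C with 0.26 nM baculovirus-expressed biotinylated protein, 50 nM fluorescent tracer and 0.25 nM streptavidin-Tb cryptate. Non-specific binding was set with 2 mM ATP.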

[3] = target: T3, pseudo-kinase domain (JH2, amino-acids 536-812 with 3 surface mutations W659A, W777A, F794H) of human Wild Type JAK2 (Homo sapiens, UniProt O60674, F794H/W659A/W777A); assay: JAK2 LanthaScreen JH2-WT Binding Assay; details: JAK2 JH2-WT (0.145 nM), 50 nM Fluorescent JAK2-JH2 Tracer, 1 hour at 25° C.; read-out: JH2 BIND WT
T3 construct: pseudo-kinase domain (JH2, amino-acids 536-812 with 3 surface mutations W659A, W777A, F794H); His (C); Avi (biotinylated) (C); purchased BPS Bioscience 79463; host or cells: baculovirus expression system
Procedure, shortened: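 Biotinylated His-Avi-tagged JAK2 JH2 (0.145 nM), baculovirus-expressed, incubated with compounds, 50 nM fluorescent JH2 tracer and 0.25 nM streptavidin-Tb, 1 h at 25° C in pH 7.5 Tris buffer with MgCl2 and DTT. Non-specific binding defined with 2 mM ATP. TR-FRET read; IC50 from four-parameter fit.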

T3 sequence (O60674 536-812 W659A/W777A/F794H): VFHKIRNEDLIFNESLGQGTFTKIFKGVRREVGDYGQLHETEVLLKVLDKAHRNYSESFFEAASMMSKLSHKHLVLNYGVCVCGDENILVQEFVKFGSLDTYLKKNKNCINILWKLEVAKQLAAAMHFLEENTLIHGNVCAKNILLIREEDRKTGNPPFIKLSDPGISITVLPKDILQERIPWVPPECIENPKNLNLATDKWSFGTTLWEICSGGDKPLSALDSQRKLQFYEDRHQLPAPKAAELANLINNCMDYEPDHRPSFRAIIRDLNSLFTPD
T1 sequence (O60674 826-1132): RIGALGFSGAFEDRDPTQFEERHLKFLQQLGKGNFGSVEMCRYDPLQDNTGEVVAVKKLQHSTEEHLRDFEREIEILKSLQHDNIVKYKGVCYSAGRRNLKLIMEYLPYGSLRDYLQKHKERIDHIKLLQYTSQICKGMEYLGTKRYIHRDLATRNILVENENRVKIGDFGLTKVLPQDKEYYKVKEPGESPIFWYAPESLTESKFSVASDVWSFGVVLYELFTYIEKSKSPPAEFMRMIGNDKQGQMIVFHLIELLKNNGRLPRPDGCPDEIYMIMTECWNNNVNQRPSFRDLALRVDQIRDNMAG
T2 sequence (O60674 536-812 V617F/W659A/W777A/F794H): as the sequence (O60674 536-812 W659A/W777A/F794H) above, with V82F counted along it

| Compound | IC50 [1] | IC50 [2] | IC50 [3] |
| --- | --- | --- | --- |
| Cn1ncc2cc(-c3c(-c4cnn(CC(C)(C)O)c4)[nH]c4ncc5c(c34)n([C@H]3CC[C@@H](CC#N)CC3)c(=O)n5C)ccc21 [Example 103, 2-((1S,4S)-4-(7-(1-(2-Hydroxy-2-methylpropyl)-1H-pyrazol-4-yl)-3-methyl-8-(1-methyl-1H-indazol-5-yl)-2-oxo-3,6-dihydroimidazo[4,5-d]pyrrolo[2,3-b]pyridin-1(2H)-yl)cyclohexyl)acetonitrile] | 100 to 500 nM | ≤ 10 nM | ≤ 10 nM |
| COC(=O)N[C@H]1C[C@@H](n2c(=O)n(C)c3cnc4[nH]c(-c5cnn(C)c5)c(-c5ccc6c(cnn6C)c5)c4c32)C1 [Example 104, Methyl ((1S,3S)-3-(3-methyl-8-(1-methyl-1H-indazol-5-yl)-7-(1-methyl-1H-pyrazol-4-yl)-2-oxo-3,6-dihydroimidazo[4,5-d]pyrrolo[2,3-b]pyridin-1(2H)-yl)cyclobutyl)carbamate] | 500 to 1000 nM | ≤ 10 nM | ≤ 10 nM |
| CCOC(=O)N[C@H]1C[C@@H](n2c(=O)n(C)c3cnc4[nH]c(-c5cnn(C)c5)c(-c5ccc(C#N)cc5)c4c32)C1 [Example 105, Ethyl ((1S,3S)-3-(8-(4-cyanophenyl)-3-methyl-7-(1-methyl-1H-pyrazol-4-yl)-2-oxo-3,6-dihydroimidazo[4,5-d]pyrrolo[2,3-b]pyridin-1(2H)-yl)cyclobutyl)carbamate] | > 1000 nM | ≤ 10 nM | ≤ 10 nM |
| CCOC(=O)N[C@H]1C[C@@H](n2c(=O)n(C)c3cnc4[nH]c(-c5cnn(C)c5)c(-c5ccc(OC)cc5)c4c32)C1 [Example 106, Ethyl ((1S,3S)-3-(8-(4-methoxyphenyl)-3-methyl-7-(1-methyl-1H-pyrazol-4-yl)-2-oxo-3,6-dihydroimidazo[4,5-d]pyrrolo[2,3-b]pyridin-1(2H)-yl)cyclobutyl)carbamate] | > 1000 nM | ≤ 10 nM | ≤ 10 nM |
| CC(C)n1c(=O)n(C)c2cnc3[nH]c(-c4cnn(C)c4)c(C4CCN(C(=O)Cc5ccc(S(C)(=O)=O)cc5)CC4)c3c21 [Example 107, 1-Isopropyl-3-methyl-7-(1-methyl-1H-pyrazol-4-yl)-8-(1-(2-(4-(methylsulfonyl)phenyl)acetyl)piperidin-4-yl)-3,6-dihydroimidazo[4,5-d]pyrrolo[2,3-b]pyridin-2(1H)-one] | 100 to 500 nM | 10 to 100 nM | 10 to 100 nM |
| COc1nn(C)cc1-c1[nH]c2ncc3c(c2c1-c1ccc2c(cnn2C)c1)n([C@H]1CC[C@@H](CC#N)CC1)c(=O)n3C [Example 108, 2-((1S,4S)-4-(7-(3-methoxy-1-methyl-1H-pyrazol-4-yl)-3-methyl-8-(1-methyl-1H-indazol-5-yl)-2-oxo-3,6-dihydroimidazo[4,5-d]pyrrolo[2,3-b]pyridin-1(2H)-yl)cyclohexyl)acetonitrile] | > 1000 nM | ≤ 10 nM | ≤ 10 nM |
| [2H]C([2H])([2H])n1ncc2cc(-c3c(-c4cn(C)nc4OC)[nH]c4ncc5c(c34)n(C3CCOCC3)c(=O)n5C)ccc21 [Example 109, 7-(3-Methoxy-1-methyl-1H-pyrazol-4-yl)-3-methyl-8-(1-(methyl-d3)-1H-indazol-5-yl)-1-(tetrahydro-2H-pyran-4-yl)-3,6-dihydroimidazo[4,5-d]pyrrolo[2,3-b]pyridin-2(1H)-one] | > 1000 nM | ≤ 10 nM | ≤ 10 nM |
| [2H]C([2H])([2H])n1ncc2cc(-c3c(-c4cnn5cccnc45)[nH]c4ncc5c(c34)n(C3CCOCC3)c(=O)n5C)ccc21 [Example 110, 3-Methyl-8-(1-(methyl-d3)-1H-indazol-5-yl)-7-(pyrazolo[1,5-a]pyrimidin-3-yl)-1-(tetrahydro-2H-pyran-4-yl)-3,6-dihydroimidazo[4,5-d]pyrrolo[2,3-b]pyridin-2(1H)-one] | > 1000 nM | ≤ 10 nM | ≤ 10 nM |
| Cn1cc(-c2[nH]c3ncc4c(c3c2-c2ccc3c(cnn3C)c2)n(C2CCN(C3(CC#N)CCC3)CC2)c(=O)n4C)cn1 [Example 111, 2-(1-(4-(3-Methyl-8-(1-methyl-1H-indazol-5-yl)-7-(1-methyl-1H-pyrazol-4-yl)-2-oxo-3,6-dihydroimidazo[4,5-d]pyrrolo[2,3-b]pyridin-1(2H)-yl)piperidin-1-yl)cyclobutyl)acetonitrile] | 500 to 1000 nM | ≤ 10 nM | ≤ 10 nM |
| Cn1cc(-c2[nH]c3ncc4c(c3c2-c2ccc(C#N)cc2)n(C2CCC3(CC2)CN(S(C)(=O)=O)C3)c(=O)n4C)cn1 [Example 112, 4-(3-Methyl-7-(1-methyl-1H-pyrazol-4-yl)-1-(2-(methylsulfonyl)-2-azaspiro[3.5]nonan-7-yl)-2-oxo-1,2,3,6-tetrahydroimidazo[4,5-d]pyrrolo[2,3-b]pyridin-8-yl)benzonitrile] | 500 to 1000 nM | ≤ 10 nM | ≤ 10 nM |
